From patent US20230210833A1, “USE OF IRAK4 INHIBITOR IN TREATMENT OF ACUTE LUNG INJURY ALI/ARDS” (SHANGHAI LEADINGTAC PHARMACEUTICAL CO., LTD., priority 2020, published 2023)

What was measured:
Assay type in all cases: in vivo, Balb/c mice
[1] = test system: LPS-induced ALI/ARDS model mice; experiment: Lung pathology score (HE staining) in LPS-induced ALI/ARDS mice; details: left lung HE staining, 24 hours after LPS; four categories each scored 0 to 4
Procedure: LPS induced model was given again after 6 hours, and the dose was the same as that of the first administration. […] The mice were euthanized with excess carbon dioxide. After the maximum blood volume was collected from the heart, the left lung was fixed with neutral formaldehyde and embedded in paraffin, sliced and HE staining, photographed to observe the lung injury and score.
Lung pathology scoring criteria: (1) alveolar congestion; (2) hemorrhage; (3) neutrophil infiltration into airspace or vascular wall; (4) alveolar wall/thickness formed by hyaline membrane.

[2] = Body weight of LPS-induced ALI/ARDS mice; details: oral dosing 0.5 h before and 6 hours after LPS (146 150 mg/kg, 41 75 mg/kg, 450 100 mg/kg, dexamethasone 10 mg/kg); 24 hours after LPS; Mean±SEM
Procedure: (§1) LPS induced model was given again after 6 hours, and the dose was the same as that of the first administration. After 24 hours from LPS induced model, all mice were weighed, the animals used were anesthetized and the alveolar lavage fluid was collected, the lower cell pellets were collected after centrifugation, and the cells were resuspended, fixed with methanol and stained with Wright-Giemsa, and the eosinophils, neutrophils, macrophages and lymphocytes were counted by an optical microscope. The mice were euthanized with excess carbon dioxide. After the maximum blood volume was collected from the heart, the left lung was fixed with neutral formaldehyde and embedded in paraffin, sliced and HE staining, photographed to observe the lung injury and score.

IL-1β = IL-1β in alveolar lavage fluid of LPS-induced ALI/ARDS mice (Elisa); details: for Inhibition of IL-1β (%): oral single dose 0.5 h before LPS (146 150 mg/kg, 41 75 mg/kg, 450 100 mg/kg, dexamethasone 10 mg/kg), alveolar lavage fluid supernatant 4 hours after LPS
Procedure: (§2) After LPS induced model for 4 hours, all mice were anesthetized and alveolar lavage fluid was collected, and the supernatant was collected by centrifuging alveolar lavage fluid. The levels of TNF-α, IL-6 and IL-1β in the supernatant were detected by enzyme-linked immunosorbent assay (Elisa).

IL-6 = IL-6 in alveolar lavage fluid of LPS-induced ALI/ARDS mice (Elisa); details: for Inhibition of IL-6 (%): oral single dose 0.5 h before LPS (146 150 mg/kg, 41 75 mg/kg, 450 100 mg/kg, dexamethasone 10 mg/kg), alveolar lavage fluid supernatant 4 hours after LPS
Procedure: as §2

TNF-α = TNF-α in alveolar lavage fluid of LPS-induced ALI/ARDS mice (Elisa); details: for Inhibition of TNF-α (%): oral single dose 0.5 h before LPS (146 150 mg/kg, 41 75 mg/kg, 450 100 mg/kg, dexamethasone 10 mg/kg), alveolar lavage fluid supernatant 4 hours after LPS
Procedure: as §2

[3] = test system: LPS-induced ALI/ARDS model mice; experiment: Cell count of alveolar lavage fluid in LPS-induced ALI/ARDS mice; details: 24 hours after LPS, oral dosing 0.5 h before and 6 hours after LPS
Procedure: as §1

[4] = after acting for 4 hours, comparison between compounds 146, 450, 41 and model group

Cc1cc(-c2nc(C(=O)Nc3cc4oc(N5CCOCC5)nc4nc3N3CC[C@@H](O)C3)co2)ccn1 [Compound 41, (R)-N-(5-(3-hydroxypyrrolidine-1-yl)-2-morpholinoxazo [4,5-b]pyridine-6-yl)-2-(2-methylpyridine-4-yl) oxazole-4-formamide]
Pulmonary pathology score [1]: 4.17 | Weight [2]: 19.45 ± 0.71 g | Inhibition of IL-1β (%) (IL-1β): 52.00% | Inhibition of IL-6 (%) (IL-6): 21.40% | Inhibition of TNF-α (%) (TNF-α): 12.90% | Eosinophils (*10^4) [3]: 2.81 *10^4 | Lymphocytes (*10^4) [3]: 3.71 *10^4 | Macrophages (*10^4) [3]: 89.06 *10^4 | Neutrophils (*10^4) [3]: 466.17 *10^4 | Total cell count (*10^4) [3]: 561.75 *10^4

CC[C@@H]1[C@H](F)C(=O)N[C@@H]1COc1nccc2cc(C(N)=O)c(OC)cc12 [Compound 450]
Pulmonary pathology score [1]: 4.83 | Weight [2]: 18.68 ± 0.4 g | IL-1β inhibitory effect (in words) (IL-1β; [4]): significantly lower than that of compound 146 | Inhibition of IL-1β (%) (IL-1β): 43.90% | IL-6 inhibitory effect (in words) (IL-6; [4]): significantly lower than that of compound 146 | Inhibition of IL-6 (%) (IL-6): 36.40% | TNF-α inhibitory effect (in words) (TNF-α; [4]): significantly lower than that of compound 146 | Inhibition of TNF-α (%) (TNF-α): 28.70% | Eosinophils (*10^4) [3]: 3.11 *10^4 | Lymphocytes (*10^4) [3]: 2.74 *10^4 | Macrophages (*10^4) [3]: 74.91 *10^4 | Neutrophils (*10^4) [3]: 386.74 *10^4 | Total cell count (*10^4) [3]: 467.50 *10^4

C[C@@H]1C[C@H]2[C@@H]3CCC4=CC(=O)C=C[C@]4(C)[C@@]3(F)[C@@H](O)C[C@]2(C)[C@@]1(O)C(=O)CO [Dexamethasone, dexamethasone]
Pulmonary pathology score [1]: 3.50 | Weight [2]: 18.91 ± 0.74 g | Inhibition of IL-1β (%) (IL-1β): 0.00% | Inhibition of IL-6 (%) (IL-6): 0.00% | Inhibition of TNF-α (%) (TNF-α): 128.70% | Eosinophils (*10^4) [3]: 3.17 *10^4 | Lymphocytes (*10^4) [3]: 3.25 *10^4 | Macrophages (*10^4) [3]: 108.20 *10^4 | Neutrophils (*10^4) [3]: 361.63 *10^4 | Total cell count (*10^4) [3]: 476.25 *10^4
